Consider 4 molecules from US20250312469A1 (CANGET BIOTEKPHARMA, priority 2024, published 2025).

Structures are written as SMILES.

One data set deals with SK-ES-1 OS tumors. Kind of data set: SK-ES-1 osteosarcoma xenograft. The class given is in vivo, SCID mice. The following applies: weekly×4.
Another data set concerns CRPC LAPC9 tumors. Put plainly: LAPC9 CRPC tumor model. The format is in vivo, SCID mice. To be noted: 10 mg/kg i.p., 6 times over 2 weeks.
Another data set can be described thus: in vitro. To be noted: both, human, whole blood (sodium heparin), pH 7.4.
Another data set has as its target DDX5 (Homo sapiens, UniProt P17844). Kind of data set: Isothermal titration calorimetry (ITC), Flag-DDX5. The class given is binding. The following applies: ITC, 25° C., 1×PBS pH7.4 with 8% DMSO.

Chain of DDX5 (P17844 whole entry): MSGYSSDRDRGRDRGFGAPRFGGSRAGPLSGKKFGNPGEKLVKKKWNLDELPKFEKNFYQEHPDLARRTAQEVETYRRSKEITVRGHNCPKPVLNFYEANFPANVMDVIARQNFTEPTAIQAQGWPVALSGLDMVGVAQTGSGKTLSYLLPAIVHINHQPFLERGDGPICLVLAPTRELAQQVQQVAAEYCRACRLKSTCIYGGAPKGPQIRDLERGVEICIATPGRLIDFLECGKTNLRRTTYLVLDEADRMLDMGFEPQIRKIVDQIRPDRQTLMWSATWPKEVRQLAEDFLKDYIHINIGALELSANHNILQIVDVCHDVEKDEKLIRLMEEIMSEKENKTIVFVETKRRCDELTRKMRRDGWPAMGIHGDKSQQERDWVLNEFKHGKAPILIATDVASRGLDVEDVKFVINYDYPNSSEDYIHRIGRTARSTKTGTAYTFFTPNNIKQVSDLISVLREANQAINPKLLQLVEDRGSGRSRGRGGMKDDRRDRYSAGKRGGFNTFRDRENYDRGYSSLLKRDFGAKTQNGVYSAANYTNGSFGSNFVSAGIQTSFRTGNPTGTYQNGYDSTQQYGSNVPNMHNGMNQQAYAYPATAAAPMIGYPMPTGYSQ

`COc1cccc2c1C(=O)c1c(O)c3c(c(O)c1C2=O)C[C@@](O)(C(=O)CO)C[C@@H]3O[C@H]1C[C@H](N)[C@H](O)[C@H](C)O1` [DOX, doxorubicin, reference compound]: the antitumor efficacy entry in the data set with SK-ES-1 OS tumors is “not seen”.
As for `CNC(=O)c1ccc(N2C(=S)N(c3ccc(C#N)c(C(F)(F)F)c3)C(=O)C2(C)C)cc1F` [Enza, enzalutamide, reference compound], in the data set with CRPC LAPC9 tumors, the antitumor efficacy entry is recorded as “not sensitive to Enza”.
Turning to `NS(=O)(=O)c1cc(C2(O)NC(=O)c3ccccc32)ccc1Cl` (stereo not shown) [chlorthalidone], the blood plasma ratio at 60 min, 1 μM in the data set “in vitro” worked out at 8.73.
As to `CC[C@@]1(O)C(=O)OCc2c1cc1n(c2=O)Cc2cc3c(CN(C)C)c(O)ccc3nc2-1` [topotecan, reference compound], the Kd at DDX5 was no less than 1.08 µM.
